{"source": "patent US20250250647A1", "about": "“STABLE CELL CLONES HARBORING REPLICATING SARS-COV-2 RNA” (priority 2021, published 2025)", "tested_on": "SARS-CoV-2-Rep-NanoLuc-Neo-Nsp1^K164A/H165A replicon", "assay_type": "cell-based", "details": "read-out: IC50, mean over stable replicon clones"}
{"compound": "CC(C)C[C@H](NC(=O)OCc1ccccc1)C(=O)N[C@@H](CC1CCNC1=O)C(O)S(=O)(=O)O", "note": "(stereo partly shown) [GC376]", "values": [{"measurement": "IC50", "result": 9.3, "unit": "µM"}]}
